Where two headings read alike, the source gives them in different places.
What was measured:
MCL-1ΔNΔC [1] = assay: High-throughput competitive FP binding screen, FITC-MCL-1 SAHB/MCL-1ΔNΔC interaction
BCL-XLΔC = BCL-XLΔC (Homo sapiens, UniProt Q07817); assay: High-throughput competitive FP binding screen, FITC-BAD BH3/BCL-XLΔC interaction
MCL-1ΔNΔC [2] = biological target: T1, MCL-1ΔNΔC (Homo sapiens, UniProt Q07820); assay: High-throughput competitive FP binding screen, FITC-MCL-1 SAHB/MCL-1ΔNΔC interaction; set-up: the C-terminal alpha-helix was deleted from each of these constructs; GST (N, cleaved yes); made in house
T1 sequence (Q07820 172-320 limits assumed, stated change not applied): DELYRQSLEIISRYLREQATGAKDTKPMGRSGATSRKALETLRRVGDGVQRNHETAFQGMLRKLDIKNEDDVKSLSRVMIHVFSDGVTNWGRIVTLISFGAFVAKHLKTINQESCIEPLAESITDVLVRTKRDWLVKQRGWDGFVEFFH

MCL-1ΔNΔC [3] = biological target: T1, MCL-1ΔNΔC; conditions: pre-incubation, re-concentration, FP with FITC-BID BH3
Method: A small sample was taken as a pre-dilution control. Compound-treated protein and unmodified protein were then diluted to a volume of 20 mL, and subsequently re-concentrated to 500 mL using 10K centrifugal filter units (Amicon). FP binding analysis was performed as described above by adding serial dilutions of compound-modified MCL-1 and unmodified MCL-1, both before and after dilution, followed by FITC-BID BH3 (15 nM) to a 96-well black flat bottom plate (Costar). FP measurements and analyses are then performed as described above.
Briefly, MCL-1ΔNΔC was pre-incubated with the small molecule inhibitors prior to dilution with buffer. The solution was concentrated to its original volume and fluorescence polarization was performed. Compounds that bind covalently will remain bound to the protein, whereas compounds that bind reversibly will be exchanged upon dilution.

[4] = selectivity for MCL-1ΔNΔC over BCL-XLΔC targeting (BCL-XL % Bound minus MCL-1 % Bound)
[5] = FITC-BAD BH3/BCL-XLΔC interaction pair, competitive FP screen
[6] = FITC-MCL-1 SAHB/MCL-1ΔNΔC interaction pair, competitive FP screen

Sequence of BCL-XLΔC (Q07817 1-212 limits assumed, stated change not applied): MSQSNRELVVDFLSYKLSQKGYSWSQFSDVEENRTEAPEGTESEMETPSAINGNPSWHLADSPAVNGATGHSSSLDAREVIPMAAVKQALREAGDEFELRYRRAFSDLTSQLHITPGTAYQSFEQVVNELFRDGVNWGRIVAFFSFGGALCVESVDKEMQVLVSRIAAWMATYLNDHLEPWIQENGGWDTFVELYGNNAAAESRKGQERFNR

Compound | Spec Values (MCL-1ΔNΔC [1]; [4]) | BCL-XL % Bound (BCL-XLΔC; [5]) [%] | MCL-1% Bound (MCL-1ΔNΔC [2]; [6]) [%] | Spec Values (MCL-1ΔNΔC [1]) | BCL-XL % Bound (BCL-XLΔC) [%] | MCL-1% Bound (MCL-1ΔNΔC [2]) [%] | mechanism of binding to MCL-1ΔNΔC upon dilution (reversible vs covalent) (MCL-1ΔNΔC [3])
O=C(O)c1cccc(-c2ccc(/C=C3\Sc4ccccc4C3=O)o2)c1 | 64.25 | 95.42 | 31.17 |  |  |  | 
Cc1c(Cl)cccc1N1C(=O)CC(Sc2nnnn2-c2ccccc2)C1=O (stereo not shown) | 45.07 | 97.5 | 52.43 |  |  |  | 
O=c1cc(-c2ccccc2)oc2cc(O)c(O)c(O)c12 [Baicailen, reference compound] | 93.84 | 104.2 | 10.32 |  |  |  | 
CC1=C(O)C(=O)C=C2C1=CC=C1[C@@]2(C)CC[C@@]2(C)[C@@H]3C[C@](C)(C(=O)O)CC[C@]3(C)CC[C@]12C [Celastrol, reference compound] |  |  |  | 64.19 | 97.09 | 32.9 | 
Cc1cc2c(C(C)C)c(O)c(O)c(C=O)c2c(O)c1-c1c(C)cc2c(C(C)C)c(O)c(O)c(C=O)c2c1O [Gossypol] |  |  |  |  |  |  | bound reversibly
Oc1c(Cl)cc(Cl)c(Cl)c1Cc1c(O)c(Cl)cc(Cl)c1Cl [Hexachlorophene, reference compound] |  |  |  | 59.35 | 100.4 | 41.01 | 
O=c1c(O)c(-c2cc(O)c(O)c(O)c2)oc2cc(O)cc(O)c12 [Myricetin, reference compound] | 68.23 | 102.4 | 34.13 |  |  |  | 
O=c1c(O)c(-c2ccc(O)c(O)c2)oc2cc(O)cc(O)c12 [Quercetin, reference compound] | 88.65 | 105.3 | 16.69 |  |  |  | 
O=C(OCC1O[C@H](OC(=O)c2cc(O)c(O)c(OC(=O)c3cc(O)c(O)c(O)c3)c2)[C@H](OC(=O)c2cc(O)c(O)c(OC(=O)c3cc(O)c(O)c(O)c3)c2)[C@@H](OC(=O)c2cc(O)c(O)c(OC(=O)c3cc(O)c(O)c(O)c3)c2)[C@@H]1OC(=O)c1cc(O)c(O)c(OC(=O)c2cc(O)c(O)c(O)c2)c1)c1cc(O)c(O)c(OC(=O)c2cc(O)c(O)c(O)c2)c1 (stereo partly shown) [Tannic Acid, reference compound] | 82.32 | 98.26 | 15.94 |  |  |  | 
N#C/C(=C\c1ccc(O)c(O)c1)C(N)=S [Tyrphostin 47, reference compound] |  |  |  | 66.21 | 100.8 | 34.55 | 
Cc1ccc2c(c1)CC[C@H]1C3CC[C@H](NCCCCCCN4C(=O)C=CC4=O)[C@@]3(C)CC[C@H]21 (stereo partly shown) [U73122, reference compound] | 49.67 | 106.3 | 56.6 |  |  |  | 
O=c1c(O)c(-c2cc(O)c(O)c(O)c2)oc2cc(O)cc(O)c12 [drawing 14] | 68.23 | 102.4 | 34.13 |  |  |  | 
N#C/C(=C\c1ccc(O)c(O)c1)C(N)=S [drawing 16] |  |  |  | 66.21 | 100.8 | 34.55 | 
COc1ccc2c(c1)CC[C@@H]1C2CC[C@@]2(C)C1CC[C@@H]2NCCCCCCN1C(=O)CCC1=O (stereo partly shown) [drawing 18] | 49.67 | 106.3 | 56.6 |  |  |  | 
O=c1cc(-c2ccccc2)oc2cc(O)c(O)c(O)c12 [drawing 19] | 93.84 | 104.2 | 10.32 |  |  |  | 
O=c1oc2c(O)c(O)cc3c(=O)oc4c(O)c(O)cc1c4c23 [drawing 20] | 89.32 | 90.58 | 1.26 |  |  |  | 
Oc1c(Cl)cc(Cl)c(Cl)c1Cc1c(O)c(Cl)cc(Cl)c1Cl [drawing 23] |  |  |  | 59.35 | 100.4 | 41.01 | 
O=C(OCC1O[C@H](OC(=O)c2cc(O)c(O)c(OC(=O)c3cc(O)c(O)c(O)c3)c2)[C@H](OC(=O)c2cc(O)c(O)c(OC(=O)c3cc(O)c(O)c(O)c3)c2)[C@@H](OC(=O)c2cc(O)c(O)c(OC(=O)c3cc(O)c(O)c(O)c3)c2)[C@@H]1OC(=O)c1cc(O)c(O)c(OC(=O)c2cc(O)c(O)c(O)c2)c1)c1cc(O)c(O)c(OC(=O)c2cc(O)c(O)c(O)c2)c1 (stereo partly shown) [drawing 25] | 82.32 | 98.26 | 15.94 |  |  |  | 
COc1ccc(N(C)C(=S)Nc2ccc3nc(-c4ccco4)c(-c4ccco4)nc3c2)cc1 [drawing 44] | 72.84 | 81.17 | 8.332 |  |  |  | 

Compound | Spec Values (MCL-1ΔNΔC [1]; [4]) | BCL-XL % Bound (BCL-XLΔC; [5]) [%] | MCL-1% Bound (MCL-1ΔNΔC [2]; [6]) [%] | Spec Values (MCL-1ΔNΔC [1]) | BCL-XL % Bound (BCL-XLΔC) [%] | MCL-1% Bound (MCL-1ΔNΔC [2]) [%] | mechanism of binding to MCL-1ΔNΔC upon dilution (reversible vs covalent) (MCL-1ΔNΔC [3])
CC1=NOC(=O)/C1=C/c1ccc(-c2ccc(Cl)cc2)o1 [drawing 53] |  |  |  | 65.98 | 101.5 | 38.47 | 
CC1=C(C#N)C(=O)N=C(O)/C1=C\c1ccc(-c2ccc(S(N)(=O)=O)cc2)o1 [drawing 84] | 76.4 | 98.2 | 21.8 |  |  |  | 
O=C1NC(=O)N(CCC2=CCCCC2)C(=O)/C1=C/c1cnc(-c2ccccc2)nc1 [drawing 98] |  |  |  | 63.4 | 106.9 | 43.51 | 
CCOc1cc(C(Nc2cccnc2)c2ccc3cccnc3c2O)ccc1O (stereo not shown) [drawing 145] | 108.7 | 108.4 | −0.3 |  |  |  | 
Cc1cc2c(C(C)C)c(O)c(O)c(C=O)c2c(O)c1-c1c(C)cc2c(C(C)C)c(O)c(O)c(C=O)c2c1O [drawing 158] |  |  |  | 97.07 | 101 | 3.955 | 
O=c1cc(-c2ccccc2)oc2cc(O)c(O)c(O)c12 [drawing 161] | 93.84 | 104.2 | 10.32 |  |  |  | 
O=c1c(O)c(-c2ccc(O)c(O)c2)oc2cc(O)cc(O)c12 [drawing 167] | 88.65 | 105.3 | 16.69 |  |  |  | 
O=c1c(O)c(-c2ccc(O)c(O)c2)oc2cc(O)cc(O)c12 [drawing 172] | 83.25 | 92.49 | 9.24 |  |  |  | 
O=C(OCC1O[C@H](OC(=O)c2cc(O)c(O)c(OC(=O)c3cc(O)c(O)c(O)c3)c2)[C@H](OC(=O)c2cc(O)c(O)c(OC(=O)c3cc(O)c(O)c(O)c3)c2)[C@@H](OC(=O)c2cc(O)c(O)c(OC(=O)c3cc(O)c(O)c(O)c3)c2)[C@@H]1OC(=O)c1cc(O)c(O)c(OC(=O)c2cc(O)c(O)c(O)c2)c1)c1cc(O)c(O)c(OC(=O)c2cc(O)c(O)c(O)c2)c1 (stereo partly shown) [drawing 178] | 82.32 | 98.26 | 15.94 |  |  |  | 
CC1=C(C#N)C(=O)N=C(O)/C1=C\c1ccc(-c2ccc(S(N)(=O)=O)cc2)o1 [drawing 191] | 76.4 | 98.2 | 21.8 |  |  |  | 
CC1=C(C#N)C(=O)N=C(O)/C1=C\c1ccc(-c2ccc(S(N)(=O)=O)cc2)o1 [drawing 192] | 76.4 | 93.7 | 17.4 |  |  |  | 
COc1ccc(N(C)C(=S)Nc2ccc3nc(-c4ccco4)c(-c4ccco4)nc3c2)cc1 [drawing 205] | 72.84 | 81.17 | 8.322 |  |  |  | 
O=c1c(O)c(-c2cc(O)c(O)c(O)c2)oc2cc(O)cc(O)c12 [drawing 222] | 68.23 | 102.4 | 34.13 |  |  |  | 
N#C/C(=C\c1ccc(O)c(O)c1)C(N)=S [drawing 231] |  |  |  | 66.21 | 100.8 | 34.55 | 
O=C1NC(=O)N(CCC2=CCCCC2)C(=O)/C1=C/c1cnc(-c2ccccc2)nc1 [drawing 249] |  |  |  | 63.4 | 106.9 | 43.51 | 
CC1=NOC(=O)/C1=C/c1ccc(-c2ccc(Cl)cc2)o1 [drawing 255] |  |  |  | 62.98 | 101.5 | 38.47 | 
Oc1c(Cl)cc(Cl)c(Cl)c1Cc1c(O)c(Cl)cc(Cl)c1Cl [drawing 274] |  |  |  | 59.35 | 100.4 | 41.01 | 
COc1ccc2c(c1)CC[C@@H]1C2CC[C@@]2(C)C1CC[C@@H]2NCCCCCCN1C(=O)CCC1=O (stereo partly shown) [drawing 365] | 49.67 | 106.3 | 56.6 |  |  |  | 

Reference: patent US20150315211A1, “SMALL MOLECULES FOR THE MODULATION OF MCL-1 AND METHODS OF MODULATING CELL DEATH, CELL DIVISION, CELL DIFFERENTIATION AND METHODS OF TREATING DISORDERS” (priority 2010, published 2015)
